What was measured:
Assay type in all cases: cell-based
endogenous tau = assay: Western blot of tau levels in M17 neuroblastoma cells
Description: (§1) It was examined whether hexachlorophene can regulate levels of tau in cellular models. Three different cells lines were treated with hexachlorophene at various different doses. M17 neuroblastoma cells were treated with 1 μM, 2 μM, 3 μM, 5 μM, and 10 μM hexachlorophene. HeLa C3 cells were treated with 0.5 μM, 1 μM, 2 μM, 3 μM, and 5 μM hexachlorophene. iHEK280 cells (an inducible tau model) were treated with 0.5 μM, 1 μM, 1.5 μM, 2 μM, and 2.5 μM hexachlorophene. Cell lysates were analyzed by Western blotting for total tau, phosphorylated tau, and actin (as a control). We also analyzed the effect of hexachlorophene on various pathological forms of tau such as the phosphoserine 396 tau form that localizes to the soluble fraction. Hexachlorophene was purchased from Sigma-Aldrich (St. Louis, Mo.). BE(2) M17 neuroblastoma cells were purchased from ATCC (Manassas, Va.). HeLa C3 cells were generated according to Jinwal et al. (J. Neurosci. 2009, 29, 12079-12088). iHEK cells were generated according to Abisambra et al. (J. Neurosci. 2013, 33, 9498-9507). Neuro-2a (N2a) mouse neuroblastoma cells overexpressing human tau-GFP were generated in house.

over-expressed tau = target: T1, over-expressed tau (Homo sapiens, UniProt P10636); assay: Western blot of tau levels in HeLa C3 cells with over-expressed tau; settings: for phosphorylated tau levels / total tau levels: 0.5-5 μM
T1 construct: expressed in transfected cells; host or cells: HeLa C3 cells
T1 sequence (P10636 1-383 isoform P10636-6): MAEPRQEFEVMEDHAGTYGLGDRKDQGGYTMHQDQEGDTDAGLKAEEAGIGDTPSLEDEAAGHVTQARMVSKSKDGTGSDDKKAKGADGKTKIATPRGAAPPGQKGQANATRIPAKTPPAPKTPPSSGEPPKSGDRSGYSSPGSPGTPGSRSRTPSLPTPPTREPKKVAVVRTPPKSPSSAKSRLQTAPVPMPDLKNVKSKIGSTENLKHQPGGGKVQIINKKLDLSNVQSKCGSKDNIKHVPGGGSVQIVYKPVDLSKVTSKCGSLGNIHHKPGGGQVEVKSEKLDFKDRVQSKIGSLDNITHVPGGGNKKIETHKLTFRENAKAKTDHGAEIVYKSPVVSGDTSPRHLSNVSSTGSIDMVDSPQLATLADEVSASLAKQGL
Description: as §1

inducible tau = assay: Western blot of tau levels in iHEK280 cells (inducible tau model); settings: for levels of phosphorylated tau / levels of total tau: 0.5-2.5 μM
Description: as §1

tau aggregates = assay: Thioflavin-S staining of tau aggregates in HEK280 cells
Description: We examined the effect of hexachlorophene on tau aggregation using thioflavin-S staining. Thioflavin S is a mixture of compounds that results from the methylation of dehydrothiotoluidine with sulfonic acid, and it is used to stain tau aggregates. Upon binding tau aggregates, thioflavin S gives a distinct increase in fluorescence emission. Thioflavin-S staining was performed by incubating HEK280 cells with 0.1% thioflavin-S for 5 min, with or without 1 μM hexachlorophene. Cells were also labelled with a primary rabbit polyclonal Tau Antibody diluted with 5% goat serum and a secondary anti-rabbit antibody labeled with red. Cells containing distinct thioflavin-S signals indicating the presence of aggregated protein were scored in many independent fields containing a total of 500 cells.

human tau-GFP [1] = assay: Western blot of tau in Neuro-2a (N2a) mouse neuroblastoma cells overexpressing human tau-GFP; settings: nanomolar concentrations, 24 hours
Description: as §1
Neuro-2a (N2a) mouse neuroblastoma cells overexpressing human tau-GFP were examined for the effect of hexachlorophene on tau protein using Western blot analysis. […]

human tau-GFP [2] = assay: Immunofluorescence and confocal microscopy of Neuro-2a cells overexpressing human tau-GFP; settings: N2a cells, immunofluorescence, 0.1-3 μM, 24 hours
Description: Neuro-2a (N2a) mouse neuroblastoma cells overexpressing human tau-GFP were examined for the effect of hexachlorophene on tau protein using Western blot analysis. […] Immunofluorescence and confocal microscopy were also used to analyze the effect of hexachlorophene on the cells.

[3] = 24 hours, listed as Hexachlorophene

Oc1c(Cl)cc(Cl)c(Cl)c1Cc1c(O)c(Cl)cc(Cl)c1Cl [hexachlorophene]
levels of phosphorylated serine 396 tau in the soluble fraction (endogenous tau): decreased | phosphorylated (Pser396) tau proteins (endogenous tau; 10 μM, 24 hours): completely cleared | levels of endogenous (total) tau (endogenous tau; 1-10 μM, 24 hours): decreased | phosphorylated form of endogenous tau (endogenous tau; 1-10 μM, 24 hours): significantly reduced | levels of endogenous (total) tau (endogenous tau; 1-10 μM, 24 hours, listed as Hexachlorophene): significantly reduced | levels of phosphorylated serine 396 tau in the soluble fraction (over-expressed tau): decreased | phosphorylated tau (Pser396) (over-expressed tau; 2 μM, 24 hours): completely cleared | total tau (over-expressed tau; 2 μM, 24 hours): partially cleared | phosphorylated tau levels (over-expressed tau; 24 hours): decreased | total tau levels (over-expressed tau; 24 hours): decreased | phosphorylated tau levels (over-expressed tau; [3]): significantly reduced | total tau levels (over-expressed tau; [3]): significantly reduced | levels of phosphorylated serine 396 tau in the soluble fraction (inducible tau): decreased | phosphorylated tau (Pser396) (inducible tau; 1.5 μM, 24 hours): completely cleared | total tau (inducible tau; 1.5 μM, 24 hours): partially cleared | phosphorylated tau (Pser396) levels (inducible tau; 2 μM, 24 hours): cleared | total tau protein (inducible tau; 2 μM, 24 hours): cleared | levels of phosphorylated tau (inducible tau; 24 hours): decreased | levels of total tau (inducible tau; 24 hours): decreased | levels of phosphorylated tau (inducible tau; [3]): significantly reduced | levels of total tau (inducible tau; [3]): significantly reduced | tau aggregation (thioflavin-S staining) (tau aggregates; 1 μM): significant reduction | tau aggregates (thioflavin-S signal) (tau aggregates; 24 hours): reduced | phosphorylated tau (Pser396 & Pser199) (human tau-GFP [1]): reduced | total tau protein (human tau-GFP [1]): reduced | phosphorylated tau (Pser396 and Pser199) (human tau-GFP [2]): reduced | total tau protein (human tau-GFP [2]): reduced
